Experimental data taken from patent publication US10584117B2, “1,3,4-oxadiazole amide derivative compound as histone deacetylase 6 inhibitor, and pharmaceutical composition containing same” (Chong Kun Dang Pharmaceutical Corp., priority 2015, dated 2020).

Target: T1, human recombinant HDAC6 (Homo sapiens, UniProt Q9UBN7)
T1 construct: purchased Calbiochem 382180
T1 sequence (Q9UBN7 1-1215): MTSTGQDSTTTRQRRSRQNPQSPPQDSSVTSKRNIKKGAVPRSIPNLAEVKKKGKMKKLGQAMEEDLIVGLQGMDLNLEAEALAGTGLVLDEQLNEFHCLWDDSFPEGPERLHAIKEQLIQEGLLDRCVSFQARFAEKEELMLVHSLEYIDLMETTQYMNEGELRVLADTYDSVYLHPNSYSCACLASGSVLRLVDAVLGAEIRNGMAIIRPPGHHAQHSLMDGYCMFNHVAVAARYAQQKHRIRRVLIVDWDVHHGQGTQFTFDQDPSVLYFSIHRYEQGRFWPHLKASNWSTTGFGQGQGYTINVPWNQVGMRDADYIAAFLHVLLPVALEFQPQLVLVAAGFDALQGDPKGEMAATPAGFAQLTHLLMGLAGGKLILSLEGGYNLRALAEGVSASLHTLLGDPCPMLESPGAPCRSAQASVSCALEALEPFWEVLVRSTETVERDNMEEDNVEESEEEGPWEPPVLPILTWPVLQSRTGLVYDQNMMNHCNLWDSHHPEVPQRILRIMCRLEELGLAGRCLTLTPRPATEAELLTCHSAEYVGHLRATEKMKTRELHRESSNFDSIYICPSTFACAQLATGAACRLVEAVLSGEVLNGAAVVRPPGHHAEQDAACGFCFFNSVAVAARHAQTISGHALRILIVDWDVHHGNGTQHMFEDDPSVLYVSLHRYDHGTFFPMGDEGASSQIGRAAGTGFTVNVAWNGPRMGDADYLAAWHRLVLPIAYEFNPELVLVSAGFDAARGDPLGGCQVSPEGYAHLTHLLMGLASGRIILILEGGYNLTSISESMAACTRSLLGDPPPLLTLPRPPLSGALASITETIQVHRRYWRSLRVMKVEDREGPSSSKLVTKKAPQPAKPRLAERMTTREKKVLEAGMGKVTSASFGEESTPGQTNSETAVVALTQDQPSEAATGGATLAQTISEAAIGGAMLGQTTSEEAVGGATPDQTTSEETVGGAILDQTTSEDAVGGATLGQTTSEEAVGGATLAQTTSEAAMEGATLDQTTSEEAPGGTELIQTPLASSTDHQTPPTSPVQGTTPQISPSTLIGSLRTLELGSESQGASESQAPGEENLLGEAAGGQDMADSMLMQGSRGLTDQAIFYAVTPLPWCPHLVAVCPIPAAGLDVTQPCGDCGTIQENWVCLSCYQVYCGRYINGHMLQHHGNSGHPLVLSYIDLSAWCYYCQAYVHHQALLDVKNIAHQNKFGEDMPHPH
Assay: HDAC enzyme activity inhibition assay (HDAC6, fluorimetric kit)
Type: biochemical
Conditions: for HDAC6 selectivity (fold): HDAC6 versus HDAC1; for IC50: same protocol as the HDAC1 test
Description: In order to examine the HDAC6 selectivity of the compounds of formula I of the present invention by HDAC1 and HDAC6 enzymatic activity inhibition assays, an experiment was performed using a conventional substance as a control. HDAC enzyme activity was measured using a HDAC Fluorimetric Drug Discovery Kit (BML-AK511, 516) from Enzo Life Science. For the HDAC1 enzyme activity test, human recombinant HDAC1 (BML-SE456) was used as an enzyme source, and Fluor de Lys®-“SIRT1 (BNL-KI177) was used as a substrate. A 5-fold dilution of the compound was seeded into a 96-well plate, and then 0.3 μg of the enzyme and 10 μM of the substrate were added to each well of the plate and allowed to react at 30° C. for 60 minutes. Then, Fluor de Lys®-Developer II (BML-KI176) was added thereto and allowed to react for 30 minutes, after which the fluorescence value (Ex 360, Em 460) was measured using a multi-plate reader (Flexstation 3, Molecular Device). The HDAC6 enzyme was tested using human recombinant HDAC6 (382180) from Calbiochem, according to the same protocol as the HDAC1 enzyme activity test method. Based on the resulting values, each IC50 value was calculated using GraphPad Prism4.0 program.

Row | Compound | HDAC6 selectivity (fold) | IC50 [nM]
1 | O=C(c1ccncc1)N(Cc1ccc(-c2nnc(C(F)(F)F)o2)cc1)c1ccccc1 [Compound 11022, N-phenyl-N-(4-(5-(trifluoromethyl)-1,3,4-oxadiazol-2-yl)benzyl)isonicotinamide] | 427 | 234
2 | CC(=O)N(Cc1ccc(-c2nnc(C(F)(F)F)o2)cc1)c1ccccc1 [Compound 11105, N-phenyl-N-(4-(5-(trifluoromethyl)-1,3,4-oxadiazol-2-yl)benzyl)acetamide] | 524 | 191
3 | O=C(C1CCCCC1)N(Cc1ccc(-c2nnc(C(F)(F)F)o2)cc1)c1ccccc1 [Compound 11106, N-phenyl-N-(4-(5-(trifluoromethyl)-1,3,4-oxadiazol-2-yl)benzyl)cyclohexanecarboxamide] | 77 | 1300
4 | O=C(c1ccccc1)N(Cc1ccc(-c2nnc(C(F)(F)F)o2)cc1)c1ccccc1 [Compound 11107, N-phenyl-N-(4-(5-(trifluoromethyl)-1,3,4-oxadiazol-2-yl)benzyl)benzamide] | 196 | 509
5 | O=C(c1ccncc1)N(Cc1ccc(-c2nnc(C(F)F)o2)cc1)c1ccccc1 [Compound 11108, N-(4-(5-(difluoromethyl)-1,3,4-oxadiazol-2-yl)benzyl)-N-phenylisonicotinamide] | 1695 | 59
6 | O=C(c1ccncc1)N(Cc1ccc(-c2nnc(C(F)(F)F)o2)cc1F)c1ccccc1 [Compound 11109, N-(2-fluoro-4-(5-(trifluoromethyl)-1,3,4-oxadiazol-2-yl)benzyl)-N-phenylisonicotinamide] | 1818 | 55
7 | O=C(c1ccncc1)N(Cc1ccc(-c2nnc(C(F)F)o2)cc1F)c1ccccc1 [Compound 11110, N-(4-(5-(difluoromethyl)-1,3,4-oxadiazol-2-yl)-2-fluorobenzyl)-N-phenylisonicotinamide] | 2000 | 50
8 | CC(C)(C)OC(=O)N1CC(C(=O)N(Cc2ccc(-c3nnc(C(F)(F)F)o3)cc2)c2ccccc2)C1 [Compound 11134, tert-butyl 3-(phenyl(4-(5-(trifluoromethyl)-1,3,4-oxadiazol-2-yl)benzyl)carbamoyl)azetidine-1-carboxylate] | 109 | 914
9 | CC(C)(C)OC(=O)N1CCC(C(=O)N(Cc2ccc(-c3nnc(C(F)(F)F)o3)cc2)c2ccccc2)CC1 [Compound 11135, tert-butyl 4-(phenyl(4-(5-(trifluoromethyl)-1,3,4-oxadiazol-2-yl)benzyl)carbamoyl)piperidine-1-carboxylate] | 36 | 2750
10 | Cl.O=C(C1CNC1)N(Cc1ccc(-c2nnc(C(F)(F)F)o2)cc1)c1ccccc1 [Compound 11136, N-phenyl-N-(4-(5-(trifluoromethyl)-1,3,4-oxadiazol-2-yl)benzyl)azetidine-3-carboxamide hydrochloride] | 493 | 203
11 | Cl.O=C(C1CCNCC1)N(Cc1ccc(-c2nnc(C(F)(F)F)o2)cc1)c1ccccc1 [Compound 11137, N-phenyl-N-(4-(5-(trifluoromethyl)-1,3,4-oxadiazol-2-yl)benzyl)piperidine-4-carboxamide hydrochloride] | 275 | 364
12 | CN1CC(C(=O)N(Cc2ccc(-c3nnc(C(F)(F)F)o3)cc2)c2ccccc2)C1 [Compound 11138, 1-methyl-N-phenyl-N-(4-(5-(trifluoromethyl)-1,3,4-oxadiazol-2-yl)benzyl)azetidine-3-carboxamide] | 351 | 285
13 | CCN1CC(C(=O)N(Cc2ccc(-c3nnc(C(F)(F)F)o3)cc2)c2ccccc2)C1 [Compound 11139, 1-ethyl-N-phenyl-N-(4-(5-(trifluoromethyl)-1,3,4-oxadiazol-2-yl)benzyl)azetidine-3-carboxamide] | 775 | 129
14 | CN1CCC(C(=O)N(Cc2ccc(-c3nnc(C(F)(F)F)o3)cc2)c2ccccc2)CC1 [Compound 11140, 1-methyl-N-phenyl-N-(4-(5-(trifluoromethyl)-1,3,4-oxadiazol-2-yl)benzyl)piperidine-4-carboxamide] | 478 | 209
15 | CCN1CCC(C(=O)N(Cc2ccc(-c3nnc(C(F)(F)F)o3)cc2)c2ccccc2)CC1 [Compound 11141, 1-ethyl-N-phenyl-N-(4-(5-(trifluoromethyl)-1,3,4-oxadiazol-2-yl)benzyl)piperidine-4-carboxamide] | 306 | 327
16 | CC(C)N1CC(C(=O)N(Cc2ccc(-c3nnc(C(F)(F)F)o3)cc2)c2ccccc2)C1 [Compound 11142, 1-isopropyl-N-phenyl-N-(4-(5-(trifluoromethyl)-1,3,4-oxadiazol-2-yl)benzyl)azetidine-3-carboxamide] | 303 | 330
17 | CC(C)N1CCC(C(=O)N(Cc2ccc(-c3nnc(C(F)(F)F)o3)cc2)c2ccccc2)CC1 [Compound 11143, 1-isopropyl-N-phenyl-N-(4-(5-(trifluoromethyl)-1,3,4-oxadiazol-2-yl)benzyl)piperidine-4-carboxamide] | 452 | 221
18 | CCC(=O)N1CC(C(=O)N(Cc2ccc(-c3nnc(C(F)(F)F)o3)cc2)c2ccccc2)C1 [Compound 11157, N-phenyl-1-propionyl-N-(4-(5-(trifluoromethyl)-1,3,4-oxadiazol-2-yl)benzyl)azetidine-3-carboxamide] | 1111 | 90
19 | CC(C)C(=O)N1CC(C(=O)N(Cc2ccc(-c3nnc(C(F)(F)F)o3)cc2)c2ccccc2)C1 [Compound 11158, 1-isobutyryl-N-phenyl-N-(4-(5-(trifluoromethyl)-1,3,4-oxadiazol-2-yl)benzyl)azetidine-3-carboxamide] | 1111 | 90
20 | O=C(C1CN(C(=O)C(F)(F)F)C1)N(Cc1ccc(-c2nnc(C(F)(F)F)o2)cc1)c1ccccc1 [Compound 11159, N-phenyl-1-(2,2,2-trifluoroacetyl)-N-(4-(5-(trifluoromethyl)-1,3,4-oxadiazol-2-yl)benzyl)azetidine-3-carboxamide] | 787 | 127
21 | CS(=O)(=O)N1CC(C(=O)N(Cc2ccc(-c3nnc(C(F)(F)F)o3)cc2)c2ccccc2)C1 [Compound 11160, 1-(methylsulfonyl)-N-phenyl-N-(4-(5-(trifluoromethyl)-1,3,4-oxadiazol-2-yl)benzyl)azetidine-3-carboxamide] | 606 | 165
22 | CC(=O)N1CCC(C(=O)N(Cc2ccc(-c3nnc(C(F)(F)F)o3)cc2)c2ccccc2)CC1 [Compound 11161, 1-acetyl-N-phenyl-N-(4-(5-(trifluoromethyl)-1,3,4-oxadiazol-2-yl)benzyl)piperidine-4-carboxamide] | 204 | 489
23 | CCC(=O)N1CCC(C(=O)N(Cc2ccc(-c3nnc(C(F)(F)F)o3)cc2)c2ccccc2)CC1 [Compound 11162, N-phenyl-1-propionyl-N-(4-(5-(trifluoromethyl)-1,3,4-oxadiazol-2-yl)benzyl)piperidine-4-carboxamide] | 483 | 207
